Measurements: patent publication US11337990B2, “Human milk oligosaccharides to promote growth of beneficial bacteria” (ABBOTT LABORATORIES, priority 2010, dated 2022)
Entries after “also recorded” stand apart in the source; their conditions may differ.

How the values were obtained:
[1] = test system: B. breve ATCC 15700; assay: Bacterial growth assay (OD600); format: cell-based, Bifidobacterium breve; conditions: 1% carbohydrate in sMRS+cysteine
Method: Coy Laboratory Products, Grass Lake, Mich.). Subsequently, the cultures are passed twice on a semi-synthetic MRS medium ([…] which is supplemented with 1% (w/v) filter-sterilized glucose as the sole carbohydrate source. […] For bifidobacteria strains, the same procedure is followed except all media are supplemented with 0.5 g/l L-cysteine/HCl. […] After the 2nd pass in sMRS+glucose+cysteine, the cultures are washed once with 10 mL of sterile sMRS+cysteine (no carbohydrate), resuspended in 10 ml of sterile sMRS+cysteine (no carbohydrate) and then used as a 1% inoculum. The carbohydrates are sterilized with a 0.22 micron filter and used at a 1% final concentration. Cell growth is performed in 250 μL of sMRS+cysteine covered with 50 μL of mineral oil in a Bioscreen 100-well Honeycomb plate. […] The plate reader is operated in discontinuous mode, with absorbance readings performed in 30-minute intervals, and preceded by 30-second shaking intervals at maximum speed. Controls consist of inoculated medium lacking carbohydrate. […] Maximum OD is determined by inspection of the corrected growth data. OD is determined by subtracting the initial corrected OD (time point 0) from the maximum corrected OD. Samples are grown in biologically independent triplicates and the resulting growth kinetic data are expressed as the mean of these replicates. […]

[2] = test system: Bifidobacterium spp.; assay: qPCR of bacterial populations in in vitro fecal fermentation; format: cell-based; conditions: overall, 0-12 h fermentation
[3] = test system: HT-29 cells; assay: Alkaline phosphatase activity per milligram of protein (cell differentiation), HT-29; format: cell-based, human; conditions: Example 48: LNnT or 2′FL 20, 200, 2000 mg/L; 6′SL 40, 400; 72 hours
Method: In a first experiment, HT-29 cells, which model the immature epithelial cells of the small intestine, are incubated in a humidified atmosphere of 5% carbon dioxide at 37° C. in the presence of LNnT or 2′FL at concentrations of 0 mg/L (“0”), 20 mg/L (“20”), 200 mg/L (“200”), and 2000 mg/L (“2000”) or in the presence of 6′SL at concentrations of 0 mg/mL (“0”), 40 mg/mL (“40”), 400 mg/mL (“400”), and 4000 mg/mL (“4000”) for 72 hours. The culture medium utilized is Dulbecco's Modified Eagle Medium (Life Technologies, Foster City Calif.) supplemented with 10% fetal calf serum and 2 mM glutamine. The controls (“energy”) consist of 91.5 mg lactose and 64.2 mg N-acetyllactosamine/L for LNnT; 133 mg lactose and 67 mg fucose/L for 2′FL; and 195 mg lactose and 205 mg/L sialic acid for 6′SL. The impact of the LNnT, 2′FL, and 6′SL at various levels and the controls on HT-29 cell proliferation is measured using a conventional BrdU assay, which measures the number of cells that have recently synthesized DNA. […] Additionally, the impact of LNnT, 2′FL, and 6′SL at various levels and the controls on the alkaline phosphatase activity per milligram of protein for HT-29 cells, which is an indicator of cell differentiation, is measured.

[4] = test system: infant fecal bacteria; assay: In vitro substrate fermentation model with infant feces (pH, SCFA, lactate); format: cell-based, human infant
[5] = test system: Caco-2 cells; assay: Transepithelial resistance (barrier function), Caco-2, Ussing chambers; format: cell-based, human; conditions: Example 48, more mature Caco-2 cells
Description: FIGS. 46-48 illustrate the effect of LNnT, 2′FL, and 6′SL on cell resistance (transepithelial resistance), which is a marker for epithelial barrier function, wherein a higher resistance is associated with a higher barrier function. Epithelial cell resistance or barrier function is a measure of differentiated epithelial cell function. Specifically, as the cells mature, tighter junctions between the cells are formed resulting in a stronger epithelial cell barrier. This barrier prevents the movement of large molecules, bacteria, or viruses from one side of the barrier to the other. […] Transepithelial resistance is measured using Transwell Snapwell inserts containing the desired cell culture were transferred to modified Ussing chambers and bathed in modified Kreb's solution at 37 C with 95% oxygen and 5% carbon dioxide. Transepithelial resistance was measured as the passive transport of ions across the monolayers.

## CC(=O)N[C@H]1[C@H](O[C@H]2[C@@H](O)[C@@H](CO)O[C@@H](O[C@H]3[C@H](O)[C@@H](O)C(O)O[C@@H]3CO)[C@@H]2O)O[C@H](CO)[C@@H](O[C@@H]2O[C@H](CO)[C@H](O)[C@H](O)[C@H]2O)[C@@H]1O (mixture of isomers) [LNnT, Lacto-N-neotetraose]
[1]
  growth / ability to ferment (OD600): grow well
[2]
  bifidobacteria populations: may also be bifidogenic; also recorded: tended to generally increase bifidobacteria levels
[3]
  alkaline phosphatase activity per milligram of protein (cell differentiation): trend toward an increase
[4]
  fermentation rate: about 4,488 μg/g of dry matter/hour
[4]; 3 and 6 h
  acetate production: produce similar amounts of acetate
[4]; 6 h
  acetate production: less acetate than GOS
[4]; 12 h
  acetate production, formula fed versus breast fed infants: greater
  lactate production: greater (P<0.0001) compared to gum Arabic
[4]; after 3, 6 and 12 h of fermentation
  total SCFA production, formula fed versus breast fed infants: greater (P=0.01) fermentation by formula fed infants
[4]; at 3, 6 and 12 h after inoculation
  pH change from baseline: greatest
[4]; overall
  fermentability by infant fecal bacteria: highly fermentable; also recorded: readily fermented
  propionate production: greater (P<0.0001) propionate production than gum Arabic
  relative rate of fermentation: fermented more rapidly than 6′SL; also recorded: fermentation rates similar to GOS
[4]; time not stated (between the 3 h and 12 h statements)
  lactate production: greater (P<0.0001)
[4]; up to 12 h
  lactate accumulation: significant amounts of lactate
[5]
  cell resistance (transepithelial resistance), barrier function: can have a positive effect on cell resistance; also recorded: can positively affect barrier function of more mature cells
